Test results taken from patent US20260062426A1, “CYCLIN DEPENDENT KINASE DEGRADERS AND METHODS OF USE THEREOF” (Differentiated Therapeutics Inc, priority 2023, published 2026).

Legend:
Type in all cases: cell-based
CDK9 = target: T1, CDK9 (Homo sapiens, UniProt P50750); assay: CDK9 HIBIT PQ (protein quantification), degradation; details: for Dmax / CDK9 HIBIT PQ Max (%): Max = Maximum; for DC50: PQ = Protein Quantification
T1 construct: host or cells: HEK293
Summary of the method: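 Maximal degradation, Dmax and DC50 come from HiBiT assay readings of CDK9 protein in compound-treated HEK293 cells that express HiBiT-tagged CDK9. The cells were grown in DMEM with 10% FBS and seeded at 1.6×10^5 cells/well in 50 uL in 384-well plates before overnight incubation at 37° C and 5% CO2. Cells treated with 0.1% DMSO set the high control, and medium only set the low control.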

CDK2 = target: T2, CDK2 (Homo sapiens, UniProt P24941); assay: CDK2 HIBIT PQ (protein quantification), degradation; details: for CDK2 HIBIT PQ Max (%): Max = Maximum; for DC50: PQ = Protein Quantification
T2 construct: host or cells: HEK293
Summary of the method: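 Maximal degradation and DC50 were obtained from luminescence readings of HEK293 cells expressing HiBiT-tagged CDK2. The cells, grown in DMEM with 10% FBS, were seeded at 1.6×10^5 cells/well in 50 uL in 384-well plates and incubated overnight at 37° C and 5% CO2 before 6 hours of compound treatment. HiBiT reagent (Nano-Glo HiBiT lytic buffer, lytic substrate, LgBiT protein) was then added at 20 μL, and plates were shaken for 20 minutes at room temperature before reading on an EnVision, against a high control of 0.1% DMSO and a low control of medium only.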

CCNE1 = target: T3, CCNE1 (Homo sapiens, UniProt P24864+P24941); assay: CCNE1 HIBIT PQ (protein quantification), degradation; details: for CCNE1 HIBIT PQ Max (%): Max = Maximum; for DC50: PQ = Protein Quantification
T3 construct: host or cells: HEK293
Summary of the method: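 HEK293 cells carrying HiBiT-tagged CCNE1 were grown in EMEM with 10% FBS and seeded in 384-well plates at 1.6×10⁵ cells/well in 50 uL, then incubated overnight at 37° C and 5% CO₂. Compound treatment lasted 6 hours, and CCNE1 protein was then measured with a HiBiT assay. High control was 0.1% DMSO-treated cells and low control was culture medium only. Maximal degradation and DC50 were derived from these readings.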

T1 sequence (P50750 whole entry): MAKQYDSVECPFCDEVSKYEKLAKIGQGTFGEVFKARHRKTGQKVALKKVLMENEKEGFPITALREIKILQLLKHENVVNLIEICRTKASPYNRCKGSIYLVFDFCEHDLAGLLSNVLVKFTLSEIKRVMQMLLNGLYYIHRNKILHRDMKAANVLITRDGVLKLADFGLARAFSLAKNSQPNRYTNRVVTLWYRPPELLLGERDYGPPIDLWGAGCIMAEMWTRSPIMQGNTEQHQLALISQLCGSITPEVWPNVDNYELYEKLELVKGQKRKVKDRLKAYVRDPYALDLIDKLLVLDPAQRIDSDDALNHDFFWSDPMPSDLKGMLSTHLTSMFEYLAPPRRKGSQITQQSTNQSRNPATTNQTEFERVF

Compound | Dmax (CDK9) [%] | DC50 (CDK9) [nM] | CDK2 HIBIT PQ Max (%) (CDK2) | DC50 (CDK2) [nM] | CCNE1 HIBIT PQ Max (%) (CCNE1) | DC50 (CCNE1) [nM] | CDK9 HIBIT PQ Max (%) (CDK9)
CC(C)Oc1c(-c2cn[nH]c2)ncn2nc(Nc3ccc(S(=O)(=O)c4cccc(CN5CCN(c6ccc7c(N8CCC(=O)NC8=O)nn(C)c7c6)CC5C(C)C)c4)cc3F)nc12 (racemic) [Compound 42, rac-(R)-1-(6-(4-(3-((3-fluoro-4-((8-isopropoxy-7-(1H-pyrazol-4-yl)-[1,2,4]triazolo[1,5-c]pyrimidin-2-yl)amino)phenyl)sulfonyl)benzyl)-3-isopropylpiperazin-1-yl)-1-methyl-1H-indazol-3-yl)dihydropyrimidine-2,4(1H,3H)-dione] | 61 | 306 | 95 | 14.9 | 67 | 78.9 | –
CC(C)Oc1c(-c2cn[nH]c2)ncn2nc(Nc3ccc(S(=O)(=O)c4cccc(CN5CCN(c6cc7c(cc6F)C(=O)N(C6CCC(=O)NC6=O)C7)CC5)c4)cc3F)nc12 (racemic) [Compound 11] | 50 | – | 90 | 2.25 | 65 | 14.4 | –
CC(C)Oc1c(-c2cn[nH]c2)ncn2nc(Nc3ccc(S(=O)(=O)c4cccc(C(C)N5CCN(c6ccc7c(N8CCC(=O)NC8=O)nn(C)c7c6)CC5)c4)cc3F)nc12 (single isomer, unassigned) [Compound 99] | – | 37.3 | 94 | 3 | 52 | 10.2 | 64
CC(C)Oc1c(-c2cn[nH]c2)ncn2nc(Nc3ccc(S(=O)(=O)c4ccc(CN5CCC(c6ccc7c(c6)n(C)c(=O)n7[C@H]6CCC(=O)NC6=O)CC5)o4)cc3F)nc12 [Compound 73] | 31 | – | 79 | 0.8 | 27 | – | –
CC(C)Oc1c(-c2cn[nH]c2)ncn2nc(Nc3ccc(S(=O)(=O)c4cccc(CN5CCN(c6ccc7c(N8CCC(=O)NC8=O)nn(C)c7c6)C6CC65)c4)cc3F)nc12 (centres unmarked) [Compound 44] | 15 | – | 92 | 3.5 | 39 | – | –
CC(C)Oc1c(-c2cn[nH]c2)ncn2nc(Nc3ccc(S(=O)(=O)N(C)CCCN4CCC(c5cccc6c(N7CCC(=O)NC7=O)nn(C)c56)CC4)cc3F)nc12 [Compound 24] | 14 | – | 94 | 0.6 | 88 | 3.14 | –
CC(C)Oc1c(-c2cn[nH]c2)ncn2nc(Nc3ccc(S(=O)(=O)c4cccc(CN5C6CCC5CN(c5ccc7c(N8CCC(=O)NC8=O)nn(C)c7c5)C6)c4)cc3F)nc12 [Compound 46] | 71 | 92.1 | 95 | 3.6 | 48 | – | –
CC(C)Oc1c(-c2cn[nH]c2)ncn2nc(Nc3ccc(S(=O)(=O)N(C)CCCN4CCC(c5cccc6c5n(C)c(=O)n6C5CCC(=O)NC5=O)CC4)cc3F)nc12 (racemic) [Compound 18] | 87 | 2.19 | 90 | 0.6 | 82 | 0.64 | –
CC(C)Oc1c(-c2cn[nH]c2)ncn2nc(Nc3ccc(S(=O)(=O)N4CCCC(CN5CCN(c6ccc7c(N8CCC(=O)NC8=O)nn(C)c7c6)C6CC65)C4)cc3F)nc12 (centres unmarked) [Compound 88] | 18 | – | 61 | 6.5 | 25 | – | –
Cc1cc(S(=O)(=O)N(C)CCCN2CCC(c3ccc4c(c3)n(C)c(=O)n4C3CCC(=O)NC3=O)CC2)cc(F)c1Nc1nc2c(OC(C)C)c(-c3cn[nH]c3)ncn2n1 (racemic) [Compound 57] | 82 | 2.25 | 90 | 0.3 | 76 | 0.62 | –
CC(C)Oc1c(-c2cn[nH]c2)ncn2nc(N[C@H]3CCN(S(=O)(=O)c4cccc(CN5CCN(c6ccc7c(N8CCC(=O)NC8=O)nn(C)c7c6)CC5C)c4)C[C@H]3C)nc12 (some centres unmarked) [Compound 51] | 100 | 20.2 | 98 | 2.4 | 92 | 9.29 | –
CC(C)Oc1c(-c2cn[nH]c2)ncn2nc(Nc3ccc(S(=O)(=O)N4CCCC(CN5CCN(c6ccc7c(N8CCC(=O)NC8=O)nn(C)c7c6)C(C)C5)C4)cc3F)nc12 (centres unmarked) [Compound 91] | 67 | 61.5 | 84 | 3.2 | 71 | 12.5 | –
CC(C)Oc1c(-c2cn[nH]c2)ncn2nc(Nc3ccc(S(=O)(=O)N(C)CCCN4CCN(c5ccc6c(c5)n(C)c(=O)n6C5CCC(=O)NC5=O)CC4)cc3F)nc12 (centres unmarked) [Compound 66] | 69 | 1.87 | 92 | 0.1 | 70 | 0.93 | –
CC(C)Oc1c(-c2cn[nH]c2)ncn2nc(Nc3ccc(S(=O)(=O)N(C)CCCN4CCC(c5ccc6c(c5)n(C)c(=O)n6C5CCC(=O)NC5=O)CC4)c4cnccc34)nc12 (racemic) [Compound 61] | 78 | 3.2 | 86 | 0.3 | 72 | 1.55 | –

Results, then the molecule that gave them:

Dmax (CDK9) [%] | DC50 (CDK9) [nM] | CDK2 HIBIT PQ Max (%) (CDK2) | DC50 (CDK2) [nM] | CCNE1 HIBIT PQ Max (%) (CCNE1) | DC50 (CCNE1) [nM] | CDK9 HIBIT PQ Max (%) (CDK9) | Compound
75 | 1.22 | 91 | 0.1 | 65 | 0.92 | – | CC(C)Oc1c(-c2cn[nH]c2)ncn2nc(Nc3ccc(S(=O)(=O)N(C)CCCN4CCN(c5ccc6c(c5)n(C)c(=O)n6C5CCC(=O)NC5=O)C[C@@H]4C)cc3F)nc12 (some centres unmarked) [Compound 62]
104 | 2.98 | 93 | 1.62 | 92 | 1.94 | – | CC(C)Oc1c(-c2cn[nH]c2)ncn2nc(NC3CCN(S(=O)(=O)c4cccc(CN5CCC(c6ccc7c(N8CCC(=O)NC8=O)nn(C)c7c6)CC5)c4)CC3)nc12 [Compound 1, 1-(6-(1-(3-((4-((8-isopropoxy-7-(1H-pyrazol-4-yl)-[1,2,4]triazolo[1,5-c]pyrimidin-2-yl)amino)piperidin-1-yl)sulfonyl)benzyl)piperidin-4-yl)-1-methyl-1H-indazol-3-yl)dihydropyrimidine-2,4(1H,3H)-dione]
77 | 3.8 | 90 | 0.87 | 85 | 0.77 | – | CC(C)Oc1c(-c2cn[nH]c2)ncn2nc(NC3CCN(S(=O)(=O)N(C)CCCN4CCC(c5cccc6c5n(C)c(=O)n6C5CCC(=O)NC5=O)CC4)CC3)nc12 (racemic) [Compound 19]
– | 10.6 | 90 | 2.6 | 77 | 13.9 | 82 | CC(C)Oc1c(-c2cn[nH]c2)ncn2nc(Nc3ccc(S(=O)(=O)c4cccc(C(C)N5CCC(c6ccc7c(N8CCC(=O)NC8=O)nn(C)c7c6)CC5)c4)cc3F)nc12 (single isomer, unassigned) [Compound 101]
97 | 11.7 | 89 | 1.44 | 72 | 6.38 | – | CC(C)Oc1c(-c2cn[nH]c2)ncn2nc(Nc3ccc(S(=O)(=O)c4cccc(N5CCN(CC6CCN(c7ccc8c(c7)CN(C7CCC(=O)NC7=O)C8=O)CC6)CC5)c4)cc3F)nc12 (racemic) [Compound 9]
75 | 307 | 94 | 14.5 | 76 | 96.5 | – | CC(C)Oc1c(-c2cn[nH]c2)ncn2nc(Nc3ccc(S(=O)(=O)c4cccc(CN5CCN(c6ccc7c(N8CCC(=O)NC8=O)nn(C)c7c6)C(C(C)C)C5)c4)cc3F)nc12 (racemic) [Compound 43, rac-1-{6-[(2R)-4-{[3-(3-fluoro-4-{[8-isopropoxy-7-(1H-pyrazol-4-yl)-[1,2, 4]triazolo[1,5-c]pyrimidin-2-yl]amino}benzenesulfonyl)phenyl]methyl}-2-isopropylpiperazin-1-yl]-1-methylindazol-3-yl}-1,3-diazinane-2,4-dione]
71 | 0.5 | 88 | – | 64 | 0.17 | – | CC(C)Oc1c(-c2cn[nH]c2)ncn2nc(Nc3ccc(S(=O)(=O)N4CCCC(CN5CCC(c6ccc7c(c6)n(C)c(=O)n7C6CCC(=O)NC6=O)CC5)C4)cc3F)nc12 (centres unmarked) [Compound 72]
92 | 4.01 | 90 | 1 | 83 | 1.96 | – | CC(C)Oc1c(-c2cn[nH]c2)ncn2nc(Nc3ccc(S(=O)(=O)N4CCC[C@@H](CN5CC[C@H](c6ccc7c(N8CCC(=O)NC8=O)nn(C)c7c6)CC5(C)C)C4)cc3F)nc12 (single isomer, unassigned) [Compound 103]
